The values that follow come from US6821442B1, “Method and apparatus for control of aquatic vertebrate and invertebrate invasive species” (priority 2002, dated 2004).

Series [1] concerns Asian clam (Corbicula fluminea). Put plainly: LT50 of Asian clam exposed to supersaturated gas, standard laboratory methods (APHA 1995). It counts as in vivo. From the text: Gas supersaturation (ΔP>0) with CO2, air or combustion off-gas is established and maintained for a time period shown to cause a selected mortality rate within the population of the target species. We have established LT50 values (LT50 is defined as the time to kill 50 per cent of a targeted species) for the Asian clam (Corbicula fluminea) exposed to elevated concentrations of carbon dioxide and a simulated combustion gas mixture ([…]; N2=85.7%; CO2=13.6%; SO2=0.284%). The LT50 values were established using standard laboratory methods (APHA 1995). With carbon dioxide exposure, LT50 was described by the model (R^2=0.86):
LT50 values decreased from a high of 270 min at 260 mm Hg PCO2 to a low of 90 min at 2070 mm Hg gage pressure. This later value represents a 27 fold decrease in LT50 below that established by McMahon et al (1995) at a PCO2 of 760 mm Hg (absolute pressure). Combustion gas requires longer exposure periods given a lower XCO2. The LT50 at a operating pressure of 2070 mm Hg is about 350 min. […] Lower levels of LT50 are anticipated for fish and other aquatic exotics of concern.

In the next series the test system is Asian clams. The conditions noted are these: cited from earlier work.
Series [2] deals with zebra mussels. The conditions noted are these: cited from earlier work.
The subject of series [3] is zebra mussels. The conditions noted are these: 25° C., cited from earlier work.

The term LC50 denotes the concentration that kills 50% of the test population.

The structures appear in SMILES notation. Converted amounts (≈) assume the structure as drawn. Read-outs that look alike come from different tables or passages of the source.

In the case of `O=C=O` [carbon dioxide], the LT50 was 270 min in series [1] (260 mm Hg PCO2, Asian clam); 90 min in series [1] (2070 mm Hg gage pressure, Asian clam); 78 h in the series with zebra mussels [3] (PCO2 75 torr, zebra mussels). Further, the “fold decrease in LT50 below that of McMahon et al at PCO2 760 mm Hg (absolute pressure)” value in series [1] (2070 mm Hg gage pressure) was determined as 27 fold. In addition, the concentration causing toxicity in the series on Asian clams was 500 mg/L. In addition, the “concentration inducing a narcotizing effect” value with Asian clams was 100 mg/L. Moreover, the LC50 with zebra mussels [2] (48 h, 18° C.) is 196 µg/mL (≈ 4.45 mM); in the series on zebra mussels [2] (48 h, 22° C.), 290 µg/mL (≈ 6.59 mM); with zebra mussels [2] (96 h, 18° C.), 74 µg/mL (≈ 1.68 mM); with zebra mussels [2] (96 h, 22° C.), 81 µg/mL (≈ 1.84 mM). The “exposure period after which sub-lethal narcotizing effects (gaping response) were induced” value with zebra mussels [2] is reported as 4 h. In the series on zebra mussels [3] (PCO2 75 torr, zebra mussels), the mortality entry is reported as “complete mortality”. Also, the “effect on byssal threads” value in the series on zebra mussels [3] (PCO2 of 38 torr) is “detachment of byssal threads and inhibition of byssal thread formation”.
